Measurements: ChEMBL document CHEMBL4038312 (J Med Chem, 2017)
Values after ≈ are worked out from the molar mass of the structure shown. One block for each molecule: values may come before it.

How the values were obtained:
physchem [1] = settings: octanol/water, pH 7.4
physchem [2] = assay: physchem
[3] = Dissociation constant, pKa of the compound; format: physicochemical
[4] = Volume of distribution at steady state in rat at 1 mg/kg, iv; format: ADME, organism-based; settings: in vivo, read-out: Vdss
[5] = AUC (0 to infinity) in rat at 3 mg/kg, po; format: ADME, organism-based; design: dose 3 mg/kg, time infinity, route oral; settings: in vivo
[6] = Solubility of the compound at pH 6.5; format: physicochemical; settings: buffer
[7] = Permeability in RRCK cells; format: ADME, cell-based, Canis lupus familiaris, MDCKII-LE; settings: dog, MDCK; read-out: permeability
[8] = Volume of distribution at steady state in dog at 0.1 mg/kg, iv; format: ADME, organism-based, Canis lupus familiaris; settings: in vivo, read-out: Vdss
[9] = Cmax in rat at 3 mg/kg, po; format: ADME, organism-based; design: dose 3 mg/kg, route oral; settings: in vivo
[10] = Drug excretion in iv dosed bile duct cannulated rat bile after 6 hrs; format: ADME, organism-based; settings: read-out: Drug excretion
in vivo = settings: rat, po, 3 mg/kg
[11] = Cmax in dog at […], po; format: ADME, organism-based, Canis lupus familiaris; design: dose 0.13 mg/kg, route oral; settings: in vivo
[12] = AUC (0 to infinity) in dog at […], po; format: ADME, organism-based, Canis lupus familiaris; design: dose 0.13 mg/kg, time infinity, route oral; settings: in vivo
[13] = Oral bioavailability in dog at […]; format: ADME, organism-based, Canis lupus familiaris; settings: in vivo
[14] = Apparent permeability from apical to basolateral side in MDCK cells harboring MDR1; format: ADME, cell-based, Canis lupus familiaris; settings: dog
[15] = Apparent permeability from basolateral to apical side in MDCK cells harboring MDR1; format: ADME, cell-based, Canis lupus familiaris; settings: dog
[16] = Cmax in dog at 3 mg/kg, po; format: ADME, organism-based, Canis lupus familiaris; design: dose 3 mg/kg, route oral; settings: in vivo
[17] = Tmax in rat at 3 mg/kg, po; format: ADME, organism-based; settings: in vivo
[18] = Tmax in dog at 3 mg/kg, po; format: ADME, organism-based, Canis lupus familiaris; settings: in vivo
[19] = Volume of distribution at steady state in human at 100 ug, iv; format: ADME; settings: in vivo, read-out: Vdss
[20] = Cmax in human at 100 ug, po; format: ADME; design: dose 100 ug, route oral; settings: in vivo
[21] = Oral bioavailability in human at 100 ug; format: ADME, organism-based; settings: in vivo
Homo sapiens = assay: Unbound Cmax in human at 2400 mg, po; format: ADME; settings: in vivo
[22] = Basic dissociation constant, pKa of the compound; format: physicochemical
[23] = Oral bioavailability in dog at 3 mg/kg; format: ADME, organism-based, Canis lupus familiaris; settings: in vivo

SMILES: N#Cc1cc(S(=O)(=O)Nc2ncns2)ccc1Oc1ccc(C(F)(F)F)cc1-c1cccnn1
logD (physchem [1]): 0.7

SMILES: Cn1nccc1-c1cc(Cl)ccc1Oc1ccc(S(=O)(=O)Nc2nncs2)cc1C#N
pKa (physchem [2]): 4.5

SMILES: O=S(=O)(Nc1cscn1)c1cc(Cl)c(Oc2ccc(C(F)(F)F)cc2-c2ccnnc2)cc1F
pKa [3]: 5.6
logD (physchem [1]): 1.6

SMILES: Cn1nccc1-c1cc(Cl)ccc1Oc1ccc(S(=O)(=O)Nc2ncns2)cc1F
pKa (physchem [2]): 3.5

SMILES: N#Cc1cc(S(=O)(=O)Nc2ncns2)ccc1Oc1ccc(Cl)cc1-c1ccn[nH]1
logD (physchem [1]): 1.6

SMILES: Cn1nccc1-c1cc(Cl)ccc1Oc1ccc(S(=O)(=O)Nc2ncns2)cc1C#N
pKa (physchem [2]): 3.5

SMILES: Cn1nccc1-c1cc(Cl)ccc1Oc1cc(F)c(S(=O)(=O)Nc2nncs2)cc1Cl
pKa (physchem [2]): 4.5

SMILES: N#Cc1cc(S(=O)(=O)Nc2ncns2)ccc1Oc1ccc(Cl)cc1-c1ccnc(N)c1
logD (physchem [1]): 1.6

SMILES: N#Cc1cc(S(=O)(=O)Nc2ncns2)ccc1Oc1ccc(C(F)(F)F)cc1-c1ccnnc1
Vd [4]: 1.3 L/kg
AUC(0-inf) [5]: 5 ng·h/mL
solubility [6]: > 300 µM
Papp [7]: 0.7 ×10⁻⁶ cm/s
Vd [8]: 1.2 L/kg
Cmax [9]: 1 ng/mL
dose excreted at 6 h [10]: 73%
bioavailability (in vivo): < 1%
logD (physchem [1]): 0.7

SMILES: N#Cc1cc(S(=O)(=O)Nc2ncns2)ccc1Oc1ccc(Cl)cc1-c1cn[nH]c1N
logD (physchem [1]): 1

SMILES: N#Cc1cc(S(=O)(=O)Nc2ncns2)ccc1Oc1ccc(Cl)cc1-c1cn[nH]c1
Vd [4]: 2.3 L/kg
Cmax [11]: 18 ng/mL
solubility [6]: 259 µM (≈ 119 µg/mL)
Papp [7]: 2.1 ×10⁻⁶ cm/s
Vd [8]: 0.5 L/kg
AUC(0-inf) [12]: 40 ng·h/mL
bioavailability [13]: 23%
logD (physchem [1]): 1.7
pKa (physchem [2]): 3.5

More lines, now with the values ahead:

logD (physchem [1]): 0.9
SMILES: N#Cc1cc(S(=O)(=O)Nc2ncns2)ccc1Oc1ccc(C(F)(F)F)cc1-c1ccncn1

logD (physchem [1]): 1.6
SMILES: CCN1CC(n2nccc2-c2cc(Cl)ccc2Oc2cc(F)c(S(=O)(=O)Nc3cscn3)cc2F)C1

logD (physchem [1]): 1.3
SMILES: CN1CC(n2nccc2-c2cc(Cl)ccc2Oc2cc(F)c(S(=O)(=O)Nc3cscn3)cc2F)C1

pKa (physchem [2]): 3.5
SMILES: Cn1nccc1-c1cc(Cl)ccc1Oc1cc(F)c(S(=O)(=O)Nc2ncns2)cc1F

logD (physchem [1]): 2.2
pKa (physchem [2]): 6.3
SMILES: Nc1n[nH]cc1-c1cc(C(F)(F)F)ccc1Oc1cc(F)c(S(=O)(=O)Nc2cscn2)cc1Cl

Vd [4]: 6.3 L/kg
AUC(0-inf) [5]: 26 ng·h/mL
solubility [6]: > 300 µM
Papp [7]: 1.1 ×10⁻⁶ cm/s
Vd [8]: 1.8 L/kg
Cmax [9]: 4 ng/mL
bioavailability (in vivo): < 5%
logD (physchem [1]): 2
pKa (physchem [2]): 3.5
SMILES: Cc1[nH]ncc1-c1cc(C(F)(F)F)ccc1Oc1ccc(S(=O)(=O)Nc2ncns2)cc1C#N

logD (physchem [1]): 1
SMILES: CN1CC(n2nccc2-c2cc(Cl)ccc2Oc2cc(F)c(S(=O)(=O)Nc3ncns3)cc2F)C1

solubility [6]: < 0.3 µM
Papp [7]: 3.8 ×10⁻⁶ cm/s
Papp A→B [14]: 0.7 ×10⁻⁶ cm/s
Papp B→A [15]: 6.3 ×10⁻⁶ cm/s
Vd [8]: 0.2 L/kg
Cmax [9]: 541 ng/mL
Cmax [16]: 998 ng/mL
Tmax [17]: 2 h
Tmax [18]: 0.9 h
Vd [19]: 0.15 L/kg
Cmax [20]: 11 ng/mL
bioavailability [21]: 110%
fCmax (Homo sapiens): 226 nM
logD (physchem [1]): 2.3 to 2.6
pKa (physchem [2]): 6.3
SMILES: Nc1[nH]ncc1-c1cc(Cl)ccc1Oc1cc(F)c(S(=O)(=O)Nc2cscn2)cc1Cl [PF-05089771]

Vd [4]: 29.7 L/kg
solubility [6]: > 262 µM
Papp [7]: 3.2 ×10⁻⁶ cm/s
pKa [22]: 7.4
Papp A→B [14]: < 0.5 ×10⁻⁶ cm/s
Papp B→A [15]: 11 ×10⁻⁶ cm/s
Vd [8]: 0.9 L/kg
Cmax [9]: 92.7 ng/mL
Tmax [17]: 0.3 h
Vd [19]: 0.41 L/kg
Cmax [20]: 0.67 ng/mL
bioavailability [21]: 52%
bioavailability (in vivo): 68%
logD (physchem [1]): 1.4
pKa (physchem [2]): 6.5
SMILES: CCN1CC(n2nccc2-c2cc(Cl)ccc2Oc2ccc(S(=O)(=O)Nc3cscn3)cc2C#N)C1 [PF-05150122]

Vd [4]: 11 L/kg
solubility [6]: 286 µM (≈ 152 µg/mL)
Papp [7]: 0.7 ×10⁻⁶ cm/s
Papp A→B [14]: < 0.5 ×10⁻⁶ cm/s
Papp B→A [15]: 1.1 ×10⁻⁶ cm/s
Vd [8]: 0.5 L/kg
Cmax [9]: 73.2 ng/mL
Cmax [16]: 2890 ng/mL
bioavailability [23]: 54%
Tmax [17]: 1.5 h
Tmax [18]: 1.5 h
pKa [3]: 4
Vd [19]: 0.18 L/kg
Cmax [20]: 4.8 ng/mL
bioavailability [21]: 101%
bioavailability (in vivo): 16%
logD (physchem [1]): 0.8 to 0.9
pKa (physchem [2]): 4.3
SMILES: O=S(=O)(Nc1nncs1)c1cc(Cl)c(Oc2ccc(C(F)(F)F)cc2-c2ccnnc2)cc1F [PF-05186462]
